Measured values published in patent US20150105252A1, “SUBSTITUTED PYRAZOLES AS HERBICIDES” (E I DU PONT DE NEMOURS AND COMPANY, priority 2013, published 2015).

Assays:
Test in all cases: Test F preemergence
velvetleaf = type: in vivo, Abutilon theophrasti
From the text: (§1) Seeds of plant species selected from corn (Zea mays), soybean (Glycine max), velvetleaf (Abutilon theophrasti), lambsquarters (Chenopodium album), wild poinsettia (Euphorbia heterophylla), pigweed, palmer (palmer pigweed, Amaranthus palmeri), common waterhemp (Amaranthus rudis), surinam grass (Brachiaria decumbens), large crabgrass (Digitaria sanguinalis), crabgrass, Brazil (Brazilian crabgrass, Digitaria horizontalis), fall panicum (Panicum dichotomiflorum), giant foxtail (Setaria faberii), green foxtail (Setaria viridis), goosegrass (Eleusine indica), johnsongrass (Sorghum halepense), common ragweed (Ambrosia elation), barnyardgrass (Echinochloa crus-galli), southern sandbur (Cenchrus echinatus), arrowleaf sida (Sida rhombifolia), Italian ryegrass (Lolium multiflorum), dayflower, VA (Virginia (VA) dayflower, Commelina virginica), field bindweed (Convolvulus arvensis), cocklebur (common cocklebur, Xanthium strumarium), morningglory (Ipomoea coccinea), nightshade (eastern black nightshade, Solanum ptycanthum), kochia (Kochia scoparia), yellow nutsedge (Cyperus esculentus), and hairy beggarticks (Bidens pilosa), were planted into a silt loam soil and treated preemergence with test chemicals formulated in a non-phytotoxic solvent mixture which included a surfactant.
(§2) At the same time, plants from these crop and weed species and also horseweed (Canada horseweed, Conyza canadensis), smartweed (ladysthumb smartweed, Polygonum persicaria), waterhemp_RES1, (ALS & Triazine resistant common waterhemp, Amaranthus rudis), and waterhemp_RES2, (ALS & HPPD resistant common waterhemp, Amaranthus rudis) were treated with postemergence applications of test chemicals formulated in the same manner. Plants ranged in height from 2 to 18 cm for postemergence treatments (1- to 4-leaf stage). Treated plants and controls were maintained in a greenhouse for 14 to 21 days, after which time all species were compared to controls and visually evaluated. Plant response ratings, summarized in Table F, are based on a scale of 0 to 100 where 0 is no effect and 100 is complete control. A dash (-) response means no test result.

large crabgrass = type: in vivo, Digitaria sanguinalis
From the text: as §1, §2

fall panicum = type: in vivo, Panicum dichotomiflorum
From the text: as §1, §2

green foxtail = type: in vivo, Setaria viridis
From the text: as §1, §2

southern sandbur = type: in vivo, Cenchrus echinatus
From the text: as §1, §2

kochia = type: in vivo, Kochia scoparia
From the text: as §1, §2

yellow nutsedge = type: in vivo, Cyperus esculentus
From the text: as §1, §2

[1] = Preemergence, 31 g ai/ha, scale 0 to 100
[2] = Preemergence, 62 g ai/ha, scale 0 to 100
[3] = Preemergence, 125 g ai/ha, scale 0 to 100
[4] = preemergence, 8 g ai/ha, scale 0 to 100, 100 is complete control
[5] = preemergence, 16 g ai/ha, scale 0 to 100, 100 is complete control
[6] = preemergence, scale 0 to 100, 100 is complete control
[7] = Preemergence, 16 g ai/ha, scale 0 to 100
[8] = Preemergence, 250 g ai/ha, scale 0 to 100

SMILES | Plant response rating, Velvetleaf (velvetleaf; [2]) | Plant response rating, Velvetleaf (velvetleaf; [3]) | Plant response rating, Velvetleaf (velvetleaf; [4]) | Plant response rating, Velvetleaf (velvetleaf; [5]) | Plant response rating, Large Crabgrass (large crabgrass; [2]) | Plant response rating, Large Crabgrass (large crabgrass; [3]) | Plant response rating, Large Crabgrass (large crabgrass; [4]) | Plant response rating, Large Crabgrass (large crabgrass; [5]) | Plant response rating, Fall Panicum (fall panicum; [2]) | Plant response rating, Fall Panicum (fall panicum; [3]) | Plant response rating, Fall Panicum (fall panicum; [4]) | Plant response rating, Fall Panicum (fall panicum; [5]) | Plant response rating, Green Foxtail (green foxtail; [2]) | Plant response rating, Green Foxtail (green foxtail; [3]) | Plant response rating, Southern Sandbur (southern sandbur; [2]) | Plant response rating, Southern Sandbur (southern sandbur; [3]) | Plant response rating, Kochia (kochia; [2]) | Plant response rating, Kochia (kochia; [3]) | Plant response rating, Yellow Nutsedge (yellow nutsedge; [2]) | Plant response rating, Yellow Nutsedge (yellow nutsedge; [3]) | further results
CCOc1cc(C(=O)NCC(F)(F)F)nn1Cc1ccnc(C(F)(F)F)c1 [Compound 104] | 95 | 100 | 0 | 0 | 100 | 100 | 70 | 90 | 100 | 100 | 15 | 85 | 100 | 100 | 80 | 90 | 100 | 100 | 60 | 75 | Plant response rating, Velvetleaf (velvetleaf; [1]): 50; Plant response rating, Large Crabgrass (large crabgrass; [1]): 100; Plant response rating, Fall Panicum (fall panicum; [1]): 90; Plant response rating, Green Foxtail (green foxtail; [1]): 100; Plant response rating, Green Foxtail (green foxtail; [4]): 5; Plant response rating, Green Foxtail (green foxtail; [5]): 60; Plant response rating, Southern Sandbur (southern sandbur; [1]): 20; Plant response rating, Southern Sandbur (southern sandbur; [4]): 0; Plant response rating, Southern Sandbur (southern sandbur; [5]): 0; Plant response rating, Kochia (kochia; [1]): 25; Plant response rating, Kochia (kochia; [4]): 0; Plant response rating, Yellow Nutsedge (yellow nutsedge; [1]): 25; Plant response rating, Yellow Nutsedge (yellow nutsedge; [4]): 0; Plant response rating, Yellow Nutsedge (yellow nutsedge; [5]): 0
CCNC(=O)c1cc(CCCl)n(Cc2ccnc(C(F)(F)F)c2)n1 [Compound 179] | 20 | 40 | 0 | – | 95 | 90 | 0 | – | 70 | 98 | 0 | – | 20 | 70 | 0 | 35 | 35 | 90 | 10 | 60 | Plant response rating, Velvetleaf (velvetleaf; [1]): 0; Plant response rating, Large Crabgrass (large crabgrass; [1]): 40; Plant response rating, Fall Panicum (fall panicum; [1]): 35; Plant response rating, Green Foxtail (green foxtail; [1]): 20; Plant response rating, Green Foxtail (green foxtail; [4]): 0; Plant response rating, Southern Sandbur (southern sandbur; [1]): 0; Plant response rating, Southern Sandbur (southern sandbur; [4]): 0; Plant response rating, Kochia (kochia; [1]): 30; Plant response rating, Kochia (kochia; [4]): 0; Plant response rating, Yellow Nutsedge (yellow nutsedge; [1]): 0; Plant response rating, Yellow Nutsedge (yellow nutsedge; [4]): 0
CCNC(=O)c1cc(CC)n(Cc2ccnc(C(F)(F)F)c2)n1 [Compound 196] | 20 | 35 | 0 | 0 | 100 | 100 | 35 | 35 | 98 | 100 | 0 | 0 | 75 | 100 | 10 | 40 | 85 | 100 | 20 | 50 | Plant response rating, Velvetleaf (velvetleaf; [6]): 0; Plant response rating, Large Crabgrass (large crabgrass; [6]): 95; Plant response rating, Fall Panicum (fall panicum; [7]): 90; Plant response rating, Green Foxtail (green foxtail; [4]): 0; Plant response rating, Green Foxtail (green foxtail; [5]): 0; Plant response rating, Southern Sandbur (southern sandbur; [4]): 0; Plant response rating, Southern Sandbur (southern sandbur; [5]): 0; Plant response rating, Kochia (kochia; [4]): 15; Plant response rating, Kochia (kochia; [5]): 40; Plant response rating, Yellow Nutsedge (yellow nutsedge; [4]): 0; Plant response rating, Yellow Nutsedge (yellow nutsedge; [5]): 0
Cc1cc(C(=O)NC(C)C)nn1Cc1ccnc(C(F)(F)F)c1 [Compound 197] | 15 | 25 | 0 | 0 | 35 | 100 | 0 | 0 | 70 | 98 | 0 | 0 | 35 | 65 | 0 | 15 | 75 | 98 | 5 | 25 | Plant response rating, Velvetleaf (velvetleaf; [6]): 0; Plant response rating, Large Crabgrass (large crabgrass; [6]): 35; Plant response rating, Fall Panicum (fall panicum; [7]): 0; Plant response rating, Green Foxtail (green foxtail; [4]): 0; Plant response rating, Green Foxtail (green foxtail; [5]): 0; Plant response rating, Southern Sandbur (southern sandbur; [4]): 0; Plant response rating, Southern Sandbur (southern sandbur; [5]): 0; Plant response rating, Kochia (kochia; [4]): 0; Plant response rating, Kochia (kochia; [5]): 0; Plant response rating, Yellow Nutsedge (yellow nutsedge; [4]): 0; Plant response rating, Yellow Nutsedge (yellow nutsedge; [5]): 0
CCc1cc(C(=O)NC2CC2)nn1Cc1ccnc(OCC(F)(F)F)c1 [Compound 200] | 20 | 80 | – | 0 | 20 | 100 | – | 0 | 35 | 80 | – | 0 | 5 | 60 | 0 | 15 | 70 | 90 | 0 | 25 | Plant response rating, Velvetleaf (velvetleaf; [8]): 85; Plant response rating, Velvetleaf (velvetleaf; [6]): 0; Plant response rating, Large Crabgrass (large crabgrass; [8]): 100; Plant response rating, Large Crabgrass (large crabgrass; [6]): 35; Plant response rating, Fall Panicum (fall panicum; [8]): 90; Plant response rating, Fall Panicum (fall panicum; [7]): 0; Plant response rating, Green Foxtail (green foxtail; [8]): 85; Plant response rating, Green Foxtail (green foxtail; [5]): 0; Plant response rating, Southern Sandbur (southern sandbur; [8]): 60; Plant response rating, Southern Sandbur (southern sandbur; [5]): 0; Plant response rating, Kochia (kochia; [8]): 100; Plant response rating, Kochia (kochia; [5]): 20; Plant response rating, Yellow Nutsedge (yellow nutsedge; [8]): 35; Plant response rating, Yellow Nutsedge (yellow nutsedge; [5]): 0
